Reference: patent publication US20230122776A1, “ANTIVIRAL AGENT” (priority 2020, published 2023)
Several values for one entry are separate records, joined by “and”; a condition that tells them apart may be missing. Equal values may be shown once. Read-outs that look alike come from different tables or passages of the source.

Experiments:
SARS-CoV-2 [1] = assay type: in vivo
SARS-CoV-2 [2] = assay type: in vivo; settings: 4 close contacts; inhaled taurolidine 0.5% 3 times or twice a day for 7 days
[3] = target: blood coagulation factor X (Homo sapiens, UniProt P00742); settings: from Reinmüller, Zentralblatt Chirurgie 124 (1999); cited from earlier work
Chain of blood coagulation factor X (P00742 41-488): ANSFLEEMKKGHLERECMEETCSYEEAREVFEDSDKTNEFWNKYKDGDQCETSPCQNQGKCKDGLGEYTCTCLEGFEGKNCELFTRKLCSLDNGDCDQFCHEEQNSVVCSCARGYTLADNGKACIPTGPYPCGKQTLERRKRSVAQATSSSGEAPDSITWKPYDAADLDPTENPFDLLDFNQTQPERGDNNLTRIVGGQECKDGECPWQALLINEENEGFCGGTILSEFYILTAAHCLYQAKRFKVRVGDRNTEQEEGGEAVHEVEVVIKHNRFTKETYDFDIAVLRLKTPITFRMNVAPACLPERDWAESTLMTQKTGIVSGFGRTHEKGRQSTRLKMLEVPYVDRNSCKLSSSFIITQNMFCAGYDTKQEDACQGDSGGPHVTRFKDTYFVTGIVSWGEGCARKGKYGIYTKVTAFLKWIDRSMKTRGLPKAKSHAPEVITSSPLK

O=S1(=O)CCN(CN2CCS(=O)(=O)NC2)CN1 [taurolidine]
time interval from the start of treatment to the easing of the symptoms (SARS-CoV-2 [1]; SARS-CoV-2 positive (POCT) participant, inhaled taurolidine 0.5% three times a day): ≤ 48 h | time interval from the start of treatment to the easing of the symptoms (SARS-CoV-2 [1]; in vivo): 96 h and 72 h | POCT for SARS-CoV-2 under prophylaxis (SARS-CoV-2 [2]): remained negative | disease symptoms under prophylaxis (SARS-CoV-2 [2]): remained symptom-free | activity of the blood coagulation factor X [3]: inhibits the activity
